Data from patent US11161881B2, “Composition comprising a peptide and an inhibitor of viral neuraminidase” (priority 2010, dated 2021).

Tests used:
[1] = test system: interleukin-6 (IL-6) release from fresh human whole blood; assay: Ex vivo release of interleukin-6 from fresh human whole blood (ELISA); format: cell-based; conditions: for concentration of IL-6: human whole blood cultures, 24 hours, n = 5
Text: Ex vivo assessment of proinflammatory properties of the AP301 peptide in human whole blood. […] In this study, fresh human whole blood has been used, as it represents an approved predictive model system for the assessment of inflammatory response in vivo.
Summary of methodology. It was the goal of this study to determine the proinflammatory signalling capacity of the peptide AP301. Whole blood cultures were used and the secretion of interleukin-6 (IL-6), a very sensitive marker for proinflammatory stimulation, was quantified by ELISA.
Test system 25 ml of freshly taken heparinized blood from • 5 healthy volunteers (HV) was used in the tests. […]
Whole blood cultures. Whole blood (WB) cultures are performed by pipetting 1 ml WB into wells of 24-well-plates. In each experiment, unstimulated and control-stimulated cultures were included.
If possible, the substances and stimulants to be investigated were always added in an identical volume to each well of a given experiment, which is not greater than 10% of the total volume contained in a well. Unstimulated controls received PBS. Volume adjustments and dilutions for different treatments were also done with PBS.
The content of each well was mixed and the plates incubated at 37° C. and 5% CO2 for 24 hours. After incubation the content of each well was transferred to a fresh 1.5 ml microtube and centrifuged at 8,000-9,000×g for 15 minutes. The supernatant of each sample was transferred individually to two 1.5 ml microtubes and kept at −20° C. until use.
Detection of interleukin-6. Interleukin-6 was quantified by a specific ELISA (Human IL-6 ELISA Set, BD Biosciences, Cat. No. 555220) employing an anti-human IL-6 antibody as capture antibody, a biotinylated anti-human IL-6 detection antibody, avidin-horseradish peroxidase conjugate as enzyme reagent and recombinant IL-6 as standard. Absorbance measurement was performed at 450 nm using the Packard FusionReader.
Data analysis. The results for each plate were stored and evaluated using the FusionDataAnalysis Software. […]

[2] = test system: influenza strain A (PR8/34); assay: Relative lung weight as a measure of pulmonary inflammation in mice infected with influenza A; format: in vivo, mice (strain C57BL/6); conditions: repeated on days 2 and 4
Description: Infection with influenza virus causes the development of a pulmonary inflammation. Laboratory mice (strain C57BL/6, 8 weeks old) were infected per-nasal with the influenza strain A (PR8/34) at a dose of 150 PFU. On days 3, 5, 7 and 9 following the infection, the lungs were taken out of 8 mice, respectively, and the relative lung weight was determined as a measure of the pulmonary inflammation.
Treatment of the pulmonary inflammation by administering the neuraminidase inhibitor or administering a combination of neuraminidase inhibitor and peptide AP301. Laboratory mice (strain C57BL/6, 8 weeks old) were infected per-nasal with the influenza strain A (PR8/34) at a dose of 150 PFU. Subsequently, each test animal received an oral administration of 10 mg/kg Oseltamivir (neuraminidase inhibitor) and an intratracheal administration of 10 μg/test animal of peptide AP301. The treatment was repeated on test days 2 and 4. On days 5, 7 and 9 following the infection, the lungs were taken out of 30 mice, respectively, and the relative lung weight was determined as a measure of the pulmonary inflammation. The results are shown graphically in FIG. 2. […]
On days 7 and 9 following the infection, the lungs were taken out of 20 mice, respectively, and the relative lung weight was determined as a measure of the pulmonary inflammation. […]

C[C@@H]1NC(=O)CNC(=O)[C@H](CCC(=O)O)NC(=O)[C@@H]2CCCN2C(=O)[C@H]([C@@H](C)O)NC(=O)[C@H](CCC(=O)O)NC(=O)[C@H](CCCNC(=N)N)NC(=O)[C@H](CCC(N)=O)NC(=O)CNC(=O)[C@@H](N)CSSC[C@@H](C(=O)O)NC(=O)[C@H](Cc2ccc(O)cc2)NC(=O)[C@H](Cc2c[nH]c3ccccc23)NC(=O)[C@@H]2CCCN2C(=O)[C@H](CCCCN)NC(=O)[C@H](C)NC(=O)[C@H](CCC(=O)O)NC1=O [AP301, (NH2) Cys-Gly-Gln-Arg-Glu-Thr-Pro-Glu-Gly-Ala-Glu-Ala-Lys-Pro-Trp-Tyr-Cys (COOH)]
induction of IL-6 secretion (in words) ([1]; all concentrations tested (10 μg/ml to 1 ng/ml for peptide; high and low doses of LPS), five healthy donors): did not induce any detectable level of IL-6 secretion | TNF receptor binding activity / proinflammatory response (concluded from IL-6 release) ([1]; ex vivo human whole blood model): does not exhibit any TNF receptor binding activity | concentration of IL-6 ([1]; test item concentration 1 ng/ml): less than 0.5 pg/ml | concentration of IL-6 ([1]; test item concentration 3 ng/ml): less than 0.5 pg/ml | concentration of IL-6 ([1]; test item concentration 1 mg/ml): less than 0.5 pg/ml | concentration of IL-6 ([1]; test item concentration 10 mg/ml): less than 0.5 pg/ml

CCOC(=O)C1=C[C@@H](OC(CC)CC)[C@H](NC(C)=O)[C@@H](N)C1 [Oseltamivir]
reduction of pulmonary inflammation, as measured by the lung weight ([2]; Example 2: 150 PFU per-nasal, Oseltamivir 10 mg/kg oral, AP301 10 μg/test animal intratracheal, lungs on days 5, 7 and 9): just a moderate effect on reducing the pulmonary inflammation

CC(=O)N[C@H]1[C@H]([C@H](O)[C@H](O)CO)OC(C(=O)O)=C[C@@H]1N=C(N)N [Zanamivir]
reduction of pulmonary inflammation, as measured by the lung weight ([2]; Example 4: 150 PFU per-nasal, Zanamivir 1.5 mg/kg nasal, AP301 50 μg/test animal intratracheal, lungs on days 7 and 9): just a moderate effect on reducing the pulmonary inflammation
